Results from US7575930B2, “Method for analyzing oligosaccharides from blood plasma” (priority 2005, dated 2009).

Experiments:
ATIII = ATIII (Homo sapiens, UniProt P01008); assay: Affinity for ATIII; type: binding
[1] = Monitoring of the plasma concentration of 3 octasaccharides in beagle dogs after subcutaneous administration (plasma filtration + anion-exchange HPLC); type: in vivo, male dogs of the beagle breed; details: 0.5 mg/kg each
Protocol: A plasma sample with a volume of between 100 and 1000 μl is withdrawn and, if appropriate, the internal standard is added to the latter.
After homogenization, the resulting solution is introduced into a 30 kD Ultrafree 05 ultrafiltration cartridge (Millipore) rinsed beforehand with 250 μl of water by centrifuging at 10 000 rev/min for 5 minutes. The plasma is introduced into the upper part of the cartridge once or twice, if the amounts to be filtered are greater than 500 μl.
The cartridge is centrifuged at 10 000 rev/min for between 1 and 2 hours and then the filtrate is withdrawn. If appropriate, the second part of the plasma to be filtered is introduced into the upper part of the cartridge and the latter is again centrifuged. The exact amount of plasma introduced will have been weighed. The cartridge is centrifuged until the protein residue in the upper part of the cartridge represents no more than approximately 10% of the initial part.
The filtrate is withdrawn and 210 μl of 3M KCl per ml of plasma filtered are added to the concentrate.
After homogenization, the cartridge is centrifuged at 10 000 rev/min for between 1 and 4 hours. The cartridge is centrifuged until the protein residue in the upper part of the cartridge represents no more than approximately 10% of the initial part.
The second filtrate is withdrawn and 210 μl of 3M KCl per ml of plasma filtered are added a second time to the concentrate.
The third filtrate is withdrawn and 250 μl of water per ml of plasma filtered are added.
The filtrates are combined and diluted 5 fold in water, and the whole is injected directly in anion-exchange HPLC. Immediately before injection, the pH of the injected solution is adjusted to 3 by addition of 1N HCl.
The filtered plasma is analyzed by anion-exchange HPLC.
The columns used are IonPAc As11 columns (Dionex), with a length of 25 cm and an internal diameter of 2 mm. The detector used is a UV spectrophotometer equipped with an array of diodes.
The whole of the […] is injected after adjustment of the pH to 3 by addition of N HCl. The flow rate chosen is 0.22 ml/min; the column temperature is 40° C.
Elution is carried out in gradient mode. The two solutions used are:
Solvent A: NaH2PO4 2.5 mM, brought to pH 2.9 by addition of H3PO4
Solvent B: NaClO4 1N, NaH2PO4 2.5 mM, brought to pH 3.0 by addition of H3PO4
The elution gradient is as follows:
T=0 min: % B=3; T=40 min: % B=60; T=60 min: % B=80
The evolution of a mixture of three octasaccharides in the blood of male dogs of the beagle breed is monitored. These 3 octasaccharides, symbolized ΔIIaIIsIsIs, ΔIsIIaIIsIs and ΔIIaIIsIsIs^1,6-anhydro, are the main affinity octasaccharides of the octasaccharide fractions of Lovenox®.
The mixture is administered subcutaneously to 3 male dogs of the beagle breed at a target dose with regard to each of these 3 constituents of 0.5 mg/kg. The administration solution is a 0.9% NaCl solution of the mixture of the 3 octasaccharides at the target concentration of 0.5 mg/ml. Blood samples of 5 ml are withdrawn at the times 0, 0.25 h, 0.5 h, 1 h, 2 h, 4 h, 6 h, 8 h, 24 h, 30 h and 48 h after administration. The blood samples withdrawn are collected in tubes containing 400 μl of a CTAD (citrate, theophylline, adenosine, dipyridamole) mixture. After homogenization, the solution is centrifuged at 3000 g at 15° C. for 15 min. The plasma supernatant is recovered and stored at −20° C. until use.
For the treatment of the plasma before HPLC injection, approximately 1 ml of plasma is withdrawn and weighed, to which 50 μl of a solution of the internal standard at a concentration of approximately 0.02 g/l are added.
The internal standard is chosen so that it is structurally as close as possible to the products to be analyzed. Its structure is given below.
The tetrasaccharide used makes it possible to correct the potentional influence of the variations in the extraction yield.
The plasma is treated and analyzed by HPLC.

[2] = Dog 1, 0 h after subcutaneous administration
[3] = Dog 1, 0.25 h after subcutaneous administration
[4] = Dog 1, 0.5 h after subcutaneous administration
[5] = Dog 1, 1 h after subcutaneous administration
[6] = Dog 1, 2 h after subcutaneous administration
[7] = Dog 1, 4 h after subcutaneous administration
[8] = Dog 1, 6 h after subcutaneous administration
[9] = Dog 1, 8 h after subcutaneous administration
[10] = Dog 1, 24 h after subcutaneous administration
[11] = Dog 1, 30 h after subcutaneous administration
[12] = Dog 1, 48 h after subcutaneous administration
[13] = Dog 2, 0 h after subcutaneous administration
[14] = Dog 2, 0.25 h after subcutaneous administration
[15] = Dog 2, 0.5 h after subcutaneous administration
[16] = Dog 2, 1 h after subcutaneous administration
[17] = Dog 2, 2 h after subcutaneous administration
[18] = Dog 2, 4 h after subcutaneous administration
[19] = Dog 2, 6 h after subcutaneous administration
[20] = Dog 2, 8 h after subcutaneous administration
[21] = Dog 2, 24 h after subcutaneous administration
[22] = Dog 2, 30 h after subcutaneous administration
[23] = Dog 2, 48 h after subcutaneous administration
[24] = Dog 3, 0 h after subcutaneous administration
[25] = Dog 3, 0.25 h after subcutaneous administration
[26] = Dog 3, 0.5 h after subcutaneous administration
[27] = Dog 3, 1 h after subcutaneous administration
[28] = Dog 3, 2 h after subcutaneous administration
[29] = Dog 3, 4 h after subcutaneous administration
[30] = Dog 3, 6 h after subcutaneous administration
[31] = Dog 3, 8 h after subcutaneous administration
[32] = Dog 3, 24 h after subcutaneous administration
[33] = Dog 3, 30 h after subcutaneous administration
[34] = Dog 3, 48 h after subcutaneous administration

Chain of ATIII (P01008 33-464, species assumed): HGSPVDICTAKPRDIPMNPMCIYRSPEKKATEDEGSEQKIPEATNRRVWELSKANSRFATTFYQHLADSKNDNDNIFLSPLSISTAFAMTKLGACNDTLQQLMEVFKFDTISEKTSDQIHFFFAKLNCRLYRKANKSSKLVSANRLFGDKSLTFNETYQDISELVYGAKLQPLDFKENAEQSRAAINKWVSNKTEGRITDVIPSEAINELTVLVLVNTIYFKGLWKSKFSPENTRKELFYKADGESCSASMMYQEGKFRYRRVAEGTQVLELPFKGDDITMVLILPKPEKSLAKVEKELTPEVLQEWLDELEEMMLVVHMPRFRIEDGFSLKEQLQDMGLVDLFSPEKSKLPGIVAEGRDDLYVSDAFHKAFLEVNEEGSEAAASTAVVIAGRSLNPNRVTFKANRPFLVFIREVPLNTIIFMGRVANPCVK

affinity for ATIII (ATIII)	plasma concentration [1, 2] [nM]	plasma concentration [1, 3] [nM]	plasma concentration [1, 4] [nM]	plasma concentration [1, 5] [nM]	plasma concentration [1, 6] [nM]	plasma concentration [1, 7] [nM]	plasma concentration [1, 8] [nM]	plasma concentration [1, 9] [nM]	plasma concentration [1, 10] [nM]	plasma concentration [1, 11] [nM]	plasma concentration [1, 12] [nM]	plasma concentration [1, 13] [nM]	plasma concentration [1, 14] [nM]	plasma concentration [1, 15] [nM]	plasma concentration [1, 16] [nM]	plasma concentration [1, 17] [nM]	plasma concentration [1, 18] [nM]	plasma concentration [1, 19] [nM]	plasma concentration [1, 20] [nM]	SMILES	further results
high affinity for ATIII	0	10	70	160	330	270	220	180	40	20	0	0	30	60	110	200	180	230	150	CC(=O)NC1C(OC2C(C(=O)O)OC(OC3C(COS(=O)(=O)O)OC(OC4C(C(=O)O)OC(OC5C(COS(=O)(=O)O)OC(O)C(NS(=O)(=O)O)C5O)C(OS(=O)(=O)O)C4O)C(NS(=O)(=O)O)C3OS(=O)(=O)O)C(O)C2O)OC(COS(=O)(=O)O)C(OC2OC(C(=O)O)C(OC3OC(COS(=O)(=O)O)C(OC4OC(C(=O)O)=CC(O)C4OS(=O)(=O)O)C(O)C3NS(=O)(=O)O)C(O)C2O)C1O (centres unmarked) [ΔIsIIaIIsIs]	plasma concentration [1, 21]: 30 nM; plasma concentration [1, 22]: 20 nM; plasma concentration [1, 23]: 0 nM; plasma concentration [1, 24]: 0 nM; plasma concentration [1, 25]: 20 nM; plasma concentration [1, 26]: 90 nM; plasma concentration [1, 27]: 130 nM; plasma concentration [1, 28]: 190 nM; plasma concentration [1, 29]: 280 nM; plasma concentration [1, 30]: 230 nM; plasma concentration [1, 31]: 190 nM; plasma concentration [1, 32]: 30 nM; plasma concentration [1, 33]: 20 nM; plasma concentration [1, 34]: 0 nM
high affinity for ATIII	0	50	170	340	560	440	370	300	60	30	10	0	50	100	210	320	300	370	250	CC(=O)N[C@H]1[C@@H](O[C@H]2[C@H](O)[C@@H](O)[C@H](O[C@H]3[C@H](OS(=O)(=O)O)[C@@H](NS(=O)(=O)O)[C@@H](O[C@H]4[C@H](O)[C@@H](OS(=O)(=O)O)[C@H](O[C@H]5[C@H](O)[C@@H](NS(=O)(=O)O)[C@@H](O[C@H]6[C@H](O)[C@@H](OS(=O)(=O)O)[C@H](O[C@H]7[C@H](O)C(NS(=O)(=O)O)[C@@H]8OC[C@H]7O8)O[C@H]6C(=O)O)O[C@@H]5COS(=O)(=O)O)O[C@H]4C(=O)O)O[C@@H]3COS(=O)(=O)O)O[C@@H]2C(=O)O)O[C@H](COS(=O)(=O)O)[C@@H](O[C@@H]2OC(C(=O)O)=C[C@H](O)[C@H]2O)[C@@H]1O (some centres unmarked) [ΔIIaIIsIsIs^1,6-anhydro]	plasma concentration [1, 21]: 50 nM; plasma concentration [1, 22]: 30 nM; plasma concentration [1, 23]: 10 nM; plasma concentration [1, 24]: 0 nM; plasma concentration [1, 25]: 60 nM; plasma concentration [1, 26]: 170 nM; plasma concentration [1, 27]: 240 nM; plasma concentration [1, 28]: 340 nM; plasma concentration [1, 29]: 460 nM; plasma concentration [1, 30]: 380 nM; plasma concentration [1, 31]: 300 nM; plasma concentration [1, 32]: 50 nM; plasma concentration [1, 33]: 40 nM; plasma concentration [1, 34]: 10 nM
